Measured values as given in patent US11446282B2, “Methods of treating mixed dyslipidemia and hypertriglycertdemia” (Kowa Company, Ltd., priority 2017, dated 2022).

Tested on: dyslipidemic patients with renal impairment
Assay: Example 3 phase III 52-week trial: cholesterol in lipoprotein subclasses by HPLC
Format: in vivo, human
Settings: for Small LDL-C Week 52 (LOCF) / VLDL-C % Change from baseline at Week 52 (LOCF) / VLDL-C Week 52 (LOCF) / Very large HDL-C % Change from baseline at Week 52 (LOCF) / Very large HDL-C Week 52 (LOCF) / Very small HDL-C % Change from baseline at Week 52 (LOCF) / Very small HDL-C Week 52 (LOCF) / Very small LDL-C % Change from baseline at Week 52 (LOCF) / Very small LDL-C Week 52 (LOCF) / CM-C % Change from baseline at Week 52 (LOCF) / CM-C Week 52 (LOCF) / Large HDL-C % Change from baseline at Week 52 (LOCF) / Large HDL-C Week 52 (LOCF) / Large LDL-C % Change from baseline at Week 52 (LOCF) / Large LDL-C Week 52 (LOCF) / Medium HDL-C % Change from baseline at Week 52 (LOCF) / Medium HDL-C Week 52 (LOCF) / Medium LDL-C % Change from baseline at Week 52 (LOCF) / Medium LDL-C Week 52 (LOCF) / Small HDL-C % Change from baseline at Week 52 (LOCF) / Small HDL-C Week 52 (LOCF) / Small LDL-C % Change from baseline at Week 52 (LOCF): 0.2 (0.4) mg/day
Protocol: This was a multicenter, single-arm, open-label, phase III trial. The inclusion criteria were as follows: (1) patients with dyslipidemia aged >20 years at the time of informed consent; (2) men and postmenopausal women; (3) fasting serum TG≥1.70 mmol/L (150 mg/dL) at two consecutive measurements during screening; and (4) patients who followed dietary and physical exercise guidance for >12 weeks before enrollment.
The major exclusion criteria were as follows: (1) patients with fasting serum TG≥5.65 mmol/L (500 mg/dL) during screening; (2) patients with poorly controlled diabetes mellitus (hemoglobin A1c [HbA1c]≥10.5%); (3) patients with concurrent poorly controlled thyroid disease; (4) men with serum creatinine ≥2.5 mg/dL and women with serum creatinine ≥2.0 mg/dL during screening who were already on statin therapy; (5) patients with eGFR<45 mL/min/1.73 m^2 during screening who were already on statin therapy; (6) patients with CK>5ULN (270 IU/L for men, 150 IU/L for women) during screening who were already on statin therapy; (7) patients with serious liver disease (cirrhosis Child-Pugh Class B or higher); (8) patients with gallstones or serious biliary tract disease; (9) patients who had suffered an acute myocardial infarction or stroke within three months before informed consent; and (10) patients with New York Heart Association class III or IV heart failure.
During the screening period (8 weeks prior to treatment initiation), tests were performed twice to determine patient eligibility. Thereafter, eligible patients orally received pemafibrate 0.2 mg/day (twice daily) for 52 weeks. From week 12 of the treatment period onwards, the investigators were instructed that the dose could be increased from 0.2 mg/day to 0.4 mg/day (twice daily) if there was an inadequate response to the initial dose based on fasting serum TG levels ≥1.70 mmol/L (150 mg/dL). Fasting blood and urine samples were collected at each visit. Blood and urine sample in patients with hemodialysis were collected just before dialysis. LDL-C levels were measured using the direct method. […]
The primary efficacy endpoint was the percent change in fasting serum TG from baseline to the last evaluation point. The primary safety endpoints were the incidence of an AE or ADR occurring after drug administration during the study. Secondary efficacy endpoints included percent changes in lipid variables and changes in inflammation variables at week 52 [using the last-observation-carried-forward (LOCF)]. Secondary safety endpoints included changes in the levels of aspartate aminotransferase (AST), ALT, -GT, ALP, serum creatinine, eGFR, and CK at week 52. Each baseline value was defined as (1) the mean of the corresponding values in the first and second tests at the screening examination and at week 0 of the treatment period for fasting serum TG, HDL-C, total cholesterol (TC), LDL-C, and non-HDL-C; and (2) the value at week 0 of the treatment period for the other secondary variables.
The numbers of patients with AEs and ADRs and the incidences of AEs and ADRs were calculated in the analysis of primary safety endpoints. For the secondary efficacy endpoints, one-sample t-tests or Wilcoxon signed-rank tests [for high-sensitivity C-reactive protein (hsCRP) and IL-1] were performed. The secondary safety endpoints were analyzed with Wilcoxon signed-rank tests. A two-sided significance level of 0.05 was used. SAS v. 9.3 (SAS Institute Inc., Cary, N.C., USA) was used for these analyses. Where indicated, the data are expressed as means±standard deviation (SD).

[1] = lowest eGFR group compared with other groups

Structure (SMILES): CC[C@@H](Oc1cccc(CN(CCCOc2ccc(OC)cc2)c2nc3ccccc3o2)c1)C(=O)O [Pemafibrate, (2R)-2-[3-({1,3-benzoxazol-2-yl[3-(4-methoxyphenoxy)propyl]amino}methyl)phenoxy]butanoic acid]
- Small LDL-C Week 52 (LOCF) (eGFR G2 (≥60 and <90)): 0.522 mmol/L
- VLDL-C % Change from baseline at Week 52 (LOCF) (eGFR G2 (≥60 and <90)): −25.3%
- VLDL-C Week 52 (LOCF) (eGFR G2 (≥60 and <90)): 0.834 mmol/L
- Very large HDL-C % Change from baseline at Week 52 (LOCF) (eGFR G2 (≥60 and <90)): 4.1%
- Very large HDL-C Week 52 (LOCF) (eGFR G2 (≥60 and <90)): 0.048 mmol/L
- Very small HDL-C % Change from baseline at Week 52 (LOCF) (eGFR G2 (≥60 and <90)): 30.9%
- Very small HDL-C Week 52 (LOCF) (eGFR G2 (≥60 and <90)): 0.181 mmol/L
- Very small LDL-C % Change from baseline at Week 52 (LOCF) (eGFR G2 (≥60 and <90)): −9.7%
- Very small LDL-C Week 52 (LOCF) (eGFR G2 (≥60 and <90)): 0.211 mmol/L
- CM-C % Change from baseline at Week 52 (LOCF) (eGFR G3a-G3b (≥30 and <60)): −67.7%
- CM-C Week 52 (LOCF) (eGFR G3a-G3b (≥30 and <60)): 0.038 mmol/L
- Large HDL-C % Change from baseline at Week 52 (LOCF) (eGFR G3a-G3b (≥30 and <60)): −4.9%
- Large HDL-C Week 52 (LOCF) (eGFR G3a-G3b (≥30 and <60)): 0.124 mmol/L
- Large LDL-C % Change from baseline at Week 52 (LOCF) (eGFR G3a-G3b (≥30 and <60)): 59.1%
- Large LDL-C Week 52 (LOCF) (eGFR G3a-G3b (≥30 and <60)): 0.720 mmol/L
- Medium HDL-C % Change from baseline at Week 52 (LOCF) (eGFR G3a-G3b (≥30 and <60)): 20.6%
- Medium HDL-C Week 52 (LOCF) (eGFR G3a-G3b (≥30 and <60)): 0.447 mmol/L
- Medium LDL-C % Change from baseline at Week 52 (LOCF) (eGFR G3a-G3b (≥30 and <60)): 18.9%
- Medium LDL-C Week 52 (LOCF) (eGFR G3a-G3b (≥30 and <60)): 1.127 mmol/L
- Small HDL-C % Change from baseline at Week 52 (LOCF) (eGFR G3a-G3b (≥30 and <60)): 24.6%
- Small HDL-C Week 52 (LOCF) (eGFR G3a-G3b (≥30 and <60)): 0.467 mmol/L
- Small LDL-C % Change from baseline at Week 52 (LOCF) (eGFR G3a-G3b (≥30 and <60)): −18.9%
- Small LDL-C Week 52 (LOCF) (eGFR G3a-G3b (≥30 and <60)): 0.501 mmol/L
- VLDL-C % Change from baseline at Week 52 (LOCF) (eGFR G3a-G3b (≥30 and <60)): −22.9%
- VLDL-C Week 52 (LOCF) (eGFR G3a-G3b (≥30 and <60)): 0.892 mmol/L
- Very large HDL-C % Change from baseline at Week 52 (LOCF) (eGFR G3a-G3b (≥30 and <60)): 5.9%
- Very large HDL-C Week 52 (LOCF) (eGFR G3a-G3b (≥30 and <60)): 0.051 mmol/L
- Very small HDL-C % Change from baseline at Week 52 (LOCF) (eGFR G3a-G3b (≥30 and <60)): 19.7%
- Very small HDL-C Week 52 (LOCF) (eGFR G3a-G3b (≥30 and <60)): 0.180 mmol/L
- Very small LDL-C % Change from baseline at Week 52 (LOCF) (eGFR G3a-G3b (≥30 and <60)): −15.8%
- Very small LDL-C Week 52 (LOCF) (eGFR G3a-G3b (≥30 and <60)): 0.207 mmol/L
- CM-C % Change from baseline at Week 52 (LOCF) (eGFR G4-G5 (<30)): −79.4%
- CM-C Week 52 (LOCF) (eGFR G4-G5 (<30)): 0.039 mmol/L
- Large HDL-C % Change from baseline at Week 52 (LOCF) (eGFR G4-G5 (<30)): 5.2%
- Large HDL-C Week 52 (LOCF) (eGFR G4-G5 (<30)): 0.096 mmol/L
- Large LDL-C % Change from baseline at Week 52 (LOCF) (eGFR G4-G5 (<30)): 39.9%
- Large LDL-C Week 52 (LOCF) (eGFR G4-G5 (<30)): 0.689 mmol/L
- Medium HDL-C % Change from baseline at Week 52 (LOCF) (eGFR G4-G5 (<30)): 53.2%
- Medium HDL-C Week 52 (LOCF) (eGFR G4-G5 (<30)): 0.336 mmol/L
- Medium LDL-C % Change from baseline at Week 52 (LOCF) (eGFR G4-G5 (<30)): −2.8%
- Medium LDL-C Week 52 (LOCF) (eGFR G4-G5 (<30)): 0.920 mmol/L
- Small HDL-C % Change from baseline at Week 52 (LOCF) (eGFR G4-G5 (<30)): 39.1%
- Small HDL-C Week 52 (LOCF) (eGFR G4-G5 (<30)): 0.395 mmol/L
- Small LDL-C % Change from baseline at Week 52 (LOCF) (eGFR G4-G5 (<30)): −38.6%
- Small LDL-C Week 52 (LOCF) (eGFR G4-G5 (<30)): 0.381 mmol/L
- VLDL-C % Change from baseline at Week 52 (LOCF) (eGFR G4-G5 (<30)): −28.7%
- VLDL-C Week 52 (LOCF) (eGFR G4-G5 (<30)): 1.076 mmol/L
- Very large HDL-C % Change from baseline at Week 52 (LOCF) (eGFR G4-G5 (<30)): 17.1%
- Very large HDL-C Week 52 (LOCF) (eGFR G4-G5 (<30)): 0.044 mmol/L
- Very small HDL-C % Change from baseline at Week 52 (LOCF) (eGFR G4-G5 (<30)): 23.5%
- Very small HDL-C Week 52 (LOCF) (eGFR G4-G5 (<30)): 0.155 mmol/L
- Very small LDL-C % Change from baseline at Week 52 (LOCF) (eGFR G4-G5 (<30)): −33.4%
- Very small LDL-C Week 52 (LOCF) (eGFR G4-G5 (<30)): 0.158 mmol/L
- high-density lipoprotein cholesterol change (observation) (lowest eGFR group): increase
- VLDL-C change (observation) [1]: greatest reduction
- chylomicron (CM-C) change (observation) [1]: greatest reduction
- small low-density lipoprotein cholesterol change (observation) [1]: greatest reduction
